Read-outs that look alike come from different tables or passages of the source.
Columns and labels:
winter wheat = settings: for increase in calcium uptake / increase in gluten content of wheat grain / increase in magnesium uptake / increase in nitrogen uptake / increase in phosphorus uptake / increase in potassium uptake / increase in protein content of wheat grain / fresh weight of aboveground part higher than control / dry root mass higher than control / fresh root mass higher than control / dry weight of aboveground part higher than control / more aboveground biomass, BBCH 55 treatment compared to control / more aboveground biomass, BBCH 55 treatment compared to plants sprayed at an earlier stage / more root biomass, BBCH 55 treatment compared to control / more root biomass, BBCH 55 treatment compared to plants sprayed at an earlier stage: 80 mg/L, benzothiadiazole salt 30 mg/L; for SPAD chlorophyll readings versus control: first term, stimulant at BBCH 32, with or without fungicide; for more aboveground biomass, BBCH 55 treatment compared to control / more aboveground biomass, BBCH 55 treatment compared to plants sprayed at an earlier stage / more root biomass, BBCH 55 treatment compared to control / more root biomass, BBCH 55 treatment compared to plants sprayed at an earlier stage: last sampling date, late milk; for fresh and dry root weight versus other experimental facilities / fresh and dry matter yields versus other experimental facilities: second sampling date; for fresh and dry matter yields versus other experimental facilities: end of heading; for SPAD chlorophyll readings: second term, stimulant at BBCH 32 without fungicide versus other objects; for chlorophyll content of wheat leaves versus control: third term, with or without fungicide
Method: The experiment was established using the long strip method, in four repetitions Gross area of each plot was 48 m^2, while the harvest area was 23.25 m^2 net. Following variants of treatment were tested: • 1. Control—no stimulant application, standard fungicide programme • 2. Stimulant application at BBCH 32, standard fungicide programme • 3. Stimulant application at BBCH 32, no fungicide application • 4. Stimulant application at BBCH 55 and 10-12 days later, standard fungicide programme • 5. […] In this experiment, standard NPK fertilization was applied, using both bulk and liquid fertilizers.
The experiment was established using the long strip method, in four repetitions Gross area of each plot was 48 m2, while the harvest area was 23.25 m2 net. Following variants of treatment were tested: • 1. Control—no stimulant application, standard fungicide programme, • 2. Stimulant application at BBCH 32, standard fungicide programme • 3. Stimulant application at BBCH 32, no fungicide application • 4. Stimulant application at BBCH 55 and 10-12 days later, standard fungicide programme • 5. […] In the experiment, uniform NPK fertilization was applied, using both bulk and liquid fertilizers.

Brome Mosaic Virus (BMV) = assay: Protection of barley against Brome Mosaic Virus infection by watering (Examples 28 and 29); type: in vivo; settings: 2 weeks after infection
[1] = test system: Pseudomonas syringae pv. Tomato; assay: Direct effect on bacterial infectivity (Example 22); type: in vivo; settings: tobacco plant, 5 days after infection with solution of bacteria and test substance; control 100
Method: Proceeding as in example 21, Pseudomonas syringae pv. Tomato bacteria were tested and incubated in bacterial medium.

powdery mildew fungus [2] = type: in vivo, tomato; settings: 80 mg/L, watered twice; 2 weeks after infection
Method: Tomato plants, at the stage of the first pair of developed true leaves, were watered twice with a solution of substance 1-32 at a concentration of 80 mg/L, at a weekly interval. The control was tomato plants watered only with water. […] The suspension was prepared from culture on solid medium. Protection against biotic stress was evaluated by comparing the area of leaves affected by infection.

[3] = test system: Pseudomonas syringae pv. Tomato (Pst); settings: 2 weeks after infection
Method: Tobacco plants at the stage of 3 developed leaves were watered twice, at a weekly interval, with a solution of test substances 1-11 at concentrations of 10, 40, 80 mg/L. The control was tobacco plants watered with water only. One week after the second treatment, a suspension of Pst bacteria at a concentration of 10^5 was spotted into the leaves using an insulin syringe (without a needle). The suspension was prepared from a two-day culture of Pst on solid medium. Protection against biotic stress was evaluated by the proliferation of bacteria in the leaves at the insertion site and the formation of a necrotic spot, compared to the control.
We proceeded as in Example 30, with the effectiveness of protection against biotic stress tested against bacterial cell concentrations raised to about 10^6.

[4] = test system: Tobacco Mosaic Virus (TMV); assay: Protection of tobacco against TMV infection by watering twice (Example 24); type: in vivo, Nicotiana tabacum cv. Xanthi; settings: watered twice, 7 days after infection
Method: Tobacco plants (Nicotiana tabacum) cv. […] 3,5-dichlorosalicylate of choline; 4. 3-chlorosalicylate of sodium, 5. 3-chlorosalicylate of potassium, 6. 3-chlorosalicylate of calcium, 7. 3-chlorosalicylate of magnesium at a concentration of 10 or 40 or 80 mg/L, at one-week intervals. The control was tobacco plants watered only with water. One week after the second treatment of the plants with the preparation, mechanical infection of the leaves with Tobacco Mosaic Virus (TMV) was carried out. This consisted of rubbing carborundum-sprinkled leaves several times with fingers soaked in a suspension of purified virus at a concentration of about 2 μg/ml. In order to evaluate the effectiveness of the tested substances in protection against biotic stresses, the TMV model and tobacco cv. Xanthi characterized by an interaction in the form of hypersensitivity phenomenon, i.e. the formation of easily quantifiable necrotic spots, were used.

powdery mildew fungus [5] = assay: Protection of tomato against powdery mildew by spraying (Example 35); type: in vivo, Lycopersicon Esculentum Mill tomato; settings: 40 mg/l, sprayed twice; 2 weeks after pathogen inoculation
Method: […] The control was tomato plants watered only with water. […] The suspension was prepared from culture on solid medium. Protection against biotic stress was evaluated by comparing the area of leaves affected by infection.
Proceeded in the way as described in Example 34, with the difference that plants were sprayed and not watered.

poinsettia = settings: treated three times, 50 mg/L; not watered for 7 days; control plants wilted
Source text: The plants were then subjected to drought stress—they were not watered for 7 days.

[6] = BBCH 32, standard fungicide protection
[7] = BBCH 55, standard fungicide protection
[8] = first sampling date (beginning of shooting), first of two sprayed objects (with / without fungicide, respectively)
[9] = first sampling date, first of two sprayed objects
[10] = first sampling date, second of two sprayed objects (with / without fungicide, respectively)
[11] = first sampling date, second of two sprayed objects

SMILES: C[N+](C)(C)CCO.O=C([O-])c1cccc2nnsc12
- increase in calcium uptake (winter wheat; [6]): 7%
- increase in gluten content of wheat grain (winter wheat; [6]): 9%
- increase in magnesium uptake (winter wheat; [6]): 8%
- increase in nitrogen uptake (winter wheat; [6]): 7%
- increase in phosphorus uptake (winter wheat; [6]): 9%
- increase in potassium uptake (winter wheat; [6]): 7%
- increase in protein content of wheat grain (winter wheat; [6]): 12%
- increase in calcium uptake (winter wheat; BBCH 32, stimulant only): 7%
- increase in gluten content of wheat grain (winter wheat; BBCH 32, stimulant only): 8%
- increase in magnesium uptake (winter wheat; BBCH 32, stimulant only): 9%
- increase in nitrogen uptake (winter wheat; BBCH 32, stimulant only): 8%
- increase in phosphorus uptake (winter wheat; BBCH 32, stimulant only): 9%
- increase in potassium uptake (winter wheat; BBCH 32, stimulant only): 8%
- increase in protein content of wheat grain (winter wheat; BBCH 32, stimulant only): 11%
- increase in calcium uptake (winter wheat; [7]): 12%
- increase in gluten content of wheat grain (winter wheat; [7]): 10%
- increase in magnesium uptake (winter wheat; [7]): 11%
- increase in nitrogen uptake (winter wheat; [7]): 12%
- increase in phosphorus uptake (winter wheat; [7]): 11%
- increase in potassium uptake (winter wheat; [7]): 7%
- increase in protein content of wheat grain (winter wheat; [7]): 12%
- increase in calcium uptake (winter wheat; BBCH 55, without fungicide): 8%
- increase in gluten content of wheat grain (winter wheat; BBCH 55, without fungicide): 9%
- increase in magnesium uptake (winter wheat; BBCH 55, without fungicide): 10%
- increase in nitrogen uptake (winter wheat; BBCH 55, without fungicide): 15%
- increase in phosphorus uptake (winter wheat; BBCH 55, without fungicide): 11%
- increase in potassium uptake (winter wheat; BBCH 55, without fungicide): 6%
- increase in protein content of wheat grain (winter wheat; BBCH 55, without fungicide): 11%
- fresh weight of aboveground part higher than control (winter wheat; [8]): 11%
- dry root mass higher than control (winter wheat; first sampling date): 14%
- fresh root mass higher than control (winter wheat; first sampling date): 12%
- dry weight of aboveground part higher than control (winter wheat; [9]): 10%
- fresh weight of aboveground part higher than control (winter wheat; [10]): 14%
- dry weight of aboveground part higher than control (winter wheat; [11]): 14%
- SPAD chlorophyll readings versus control (winter wheat): significantly higher
- more aboveground biomass, BBCH 55 treatment compared to control (winter wheat): 30%
- more aboveground biomass, BBCH 55 treatment compared to plants sprayed at an earlier stage (winter wheat): 13%
- more root biomass, BBCH 55 treatment compared to control (winter wheat): 21%
- more root biomass, BBCH 55 treatment compared to plants sprayed at an earlier stage (winter wheat): 14%
- fresh and dry root weight versus other experimental facilities (winter wheat): comparable
- fresh and dry matter yields versus other experimental facilities (winter wheat): comparable
- SPAD chlorophyll readings (winter wheat): highest
- chlorophyll content of wheat leaves versus control (winter wheat): significantly higher

SMILES: C[N+](C)(C)CCO.O=C([O-])c1cccc(Cl)c1O [choline 3-chlorosalicylate]
- % reduction in necrotic spots compared to control (Brome Mosaic Virus (BMV); 10 mg/L, watered): 69%
- % reduction in necrotic spots compared to control (Brome Mosaic Virus (BMV); 80 mg/L, watered twice): 100%
- % reduction in necrotic spots compared to control (Brome Mosaic Virus (BMV); 80 mg/L, watered twice, listed as 2-hydroxyethyl(trimethyl)ammonium 3-chlorosalicylate): 98%
- % of necrotic spots [1]: 99%
- % reduction in necrotic spots compared to control (powdery mildew fungus [2]): 95%
- % reduction in necrotic spots compared to control ([3]; 10 mg/L, watered twice, Pst 10^5): 65%
- % reduction in necrotic spots compared to control ([3]; 40 mg/L, watered twice, Pst 10^5): 72%
- % reduction in necrotic spots compared to control ([3]; 80 mg/L, bacterial cell concentration raised to about 10^6): 85%
- % reduction in necrotic spots compared to control ([3]; 80 mg/L, watered twice, Pst 10^5): 89%
- increase in calcium uptake (winter wheat; [6]): 4%
- increase in gluten content of wheat grain (winter wheat; [6]): 8%
- increase in magnesium uptake (winter wheat; [6]): 4%
- increase in nitrogen uptake (winter wheat; [6]): 7%
- increase in phosphorus uptake (winter wheat; [6]): 8%
- increase in potassium uptake (winter wheat; [6]): 6%
- increase in protein content of wheat grain (winter wheat; [6]): 10%
- increase in calcium uptake (winter wheat; BBCH 32, stimulant only): 6%
- increase in gluten content of wheat grain (winter wheat; BBCH 32, stimulant only): 7%
- increase in magnesium uptake (winter wheat; BBCH 32, stimulant only): 5%
- increase in nitrogen uptake (winter wheat; BBCH 32, stimulant only): 7%
- increase in phosphorus uptake (winter wheat; BBCH 32, stimulant only): 9%
- increase in potassium uptake (winter wheat; BBCH 32, stimulant only): 8%
- increase in protein content of wheat grain (winter wheat; BBCH 32, stimulant only): 8%
- increase in calcium uptake (winter wheat; [7]): 4%
- increase in gluten content of wheat grain (winter wheat; [7]): 9%
- increase in magnesium uptake (winter wheat; [7]): 5%
- increase in nitrogen uptake (winter wheat; [7]): 14%
- increase in phosphorus uptake (winter wheat; [7]): 12%
- increase in potassium uptake (winter wheat; [7]): 6%
- increase in protein content of wheat grain (winter wheat; [7]): 11%
- increase in calcium uptake (winter wheat; BBCH 55, without fungicide): 5%
- increase in gluten content of wheat grain (winter wheat; BBCH 55, without fungicide): 8%
- increase in magnesium uptake (winter wheat; BBCH 55, without fungicide): 6%
- increase in nitrogen uptake (winter wheat; BBCH 55, without fungicide): 16%
- increase in phosphorus uptake (winter wheat; BBCH 55, without fungicide): 12%
- increase in potassium uptake (winter wheat; BBCH 55, without fungicide): 5%
- increase in protein content of wheat grain (winter wheat; BBCH 55, without fungicide): 10%
- fresh weight of aboveground part higher than control (winter wheat; [8]): 12%
- dry root mass higher than control (winter wheat; first sampling date): 19%
- fresh root mass higher than control (winter wheat; first sampling date): 15%
- dry weight of aboveground part higher than control (winter wheat; [9]): 11%
- fresh weight of aboveground part higher than control (winter wheat; [10]): 17%
- dry weight of aboveground part higher than control (winter wheat; [11]): 16%
- SPAD chlorophyll readings versus control (winter wheat): significantly higher
- more aboveground biomass, BBCH 55 treatment compared to control (winter wheat): 31%
- more aboveground biomass, BBCH 55 treatment compared to plants sprayed at an earlier stage (winter wheat): 12%
- more root biomass, BBCH 55 treatment compared to control (winter wheat): 25%
- more root biomass, BBCH 55 treatment compared to plants sprayed at an earlier stage (winter wheat): 17%
- fresh and dry root weight versus other experimental facilities (winter wheat): comparable
- fresh and dry matter yields versus other experimental facilities (winter wheat): comparable
- SPAD chlorophyll readings (winter wheat): higher
- chlorophyll content of wheat leaves versus control (winter wheat): significantly higher
- % reduction in necrotic spots compared to control ([4]; 10 mg/L): 80%
- % reduction in necrotic spots compared to control ([4]; 40 mg/L): 100%
- % reduction in necrotic spots compared to control ([4]; 80 mg/L): 100%
- Reduction in necrotic spots (white patches) compared to control (powdery mildew fungus [5]): 72%
- drought effects on the plants (poinsettia): no drought effects were observed
